Where two headings read alike, the source gives them in different places.
Test: Stability study by HPLC-MS under ambient conditions
Format: physicochemical
Description: High performance liquid chromatography-mass spectroscopy (HPLC-MS) was used to monitor the degradation of four synthetic compounds over a period of time.

[1] = room temperature, air, water solution, neutral pH, HPLC-MS

Substance | degradation after 7 days (estimated based on UV signal) [1] | degradation after 7 days (estimated based on UV signal)
[Nle^8,18]hPTH(1-37) [[Nle^8,11]hPTH(1-37)] | about 70% | 
[Nle^8,18]hPTH(1-84) [[Nle^8,11]hPTH(1-84)] |  | less than 10%
hPTH(1-37) (SVSEIQLMHNLGKHLNSMERVEWLRKKLQDVHNFVAL) | about 70% | 

Source: patent US20140228293A1, “PARATHYROID HORMONE ANALOGS, COMPOSITIONS AND USES THEREOF” (THE GENERAL HOSPITAL CORPORATION, priority 2011, published 2014)
